The conditions of data set [1]: in the presence of CO2 and N2 mixtures; cited from earlier work.
The conditions of data set [2]: cited from earlier work.
For data set [3], the system named is microbial growth. Particulars: pCO2~300 mbar; Baez A et al. 2009; cited from earlier work.
Data set [4] relates to Escherichia coli, strain MG1655. The experiment in a line: Effect of high partial pressure of carbon dioxide on growth and metabolism of E. coli cultured on glucose (batch fermenters). The data set is classed as cell-based. Particulars: pCO2~800 mbar. How it is done: Escherichia coli, strain MG1655 (ATCC Number 700926; American Type Culture Collection (ATCC), Manassas, Va.), was grown in batch mode in 1.4 L Multifors fermenters (Infors A G, Basel, Switzerland) equipped with temperature, pH and dO (dissolved oxygen) control. Initially, the fermenters contained in 1 L total volume: KH2PO4, 7.5 g/L; MgSO4.7H2O, 2.0 g/L; citric acid, 1.83 g/L; ferric ammonium citrate, 0.3 g/L; CaCl2.2H2O, 0.2 g/L; sulfuric acid (98%), 1.2 mL/L; yeast extract, 5 g/L; and glucose (10 g/L). After sterilization, 10 mL of a trace metal mixture and 1 mL of a thiamine solution (150 mM) was added and the medium was adjusted to the desired pH (see below) with 3 M NaOH. The trace metal mixture contained: MnSO4.H2O, 3 g/L; NaCl, 1 g/L; FeSO4.7H2O, 0.1 g/L; CoCl2.6H2O, 0.1 g/L; ZnSO4.7H2O, 0.1 g/L; CuSO4.5H2O, 0.0064 g/L; H3BO3, 0.01 g/L; and Na2MoO4.2H2O, 0.01 g/L. In one set of three fermenters, gas flow (air) was fixed at 0.5 VVM (volume per volume per minute) and pH was automatically maintained at pH 6.2, pH 6.5 and 6.8 with the addition of 3 M NaOH. […]
After equilibration with the gases, evident by the cessation of NaOH addition, the fermenters were inoculated at an initial OD600 of approximately 0.4 absorbance units (AU). […]

Like-named read-outs stand apart in the source and are kept apart here.

For the compound `C=CC(=C)C` [isoprene], the “flammable minimum oxygen concentration (MOC) value” in data set [1] is reported as “about 9.7%”. Also, the solubility in water entry in data set [2] (at 1 bar and 25° C.) is reported as “about 642 ppm”.

Take `C=CC` [propylene]: the “flammable minimum oxygen concentration (MOC) value” in data set [1] is “about 13%”.

`C=C(C)C` [isobutene]: in data set [1], the “flammable minimum oxygen concentration (MOC) value” was “about 13%”. Further, in data set [2] (at 1 bar and 20° C.), the solubility in water entry was “about 260 ppm”.

With `O=C=O` [carbon dioxide], in data set [3], the “effect on microbial growth” value is reported as “significantly inhibit microbial growth”. The “effect on growth rate of E. coli” value in data set [4] was “only slight impairments of growth rate”.

For `C=CC=C` [1,3-butadiene], in data set [1], the “flammable minimum oxygen concentration (MOC) value” is on record as “about 10.5%”. For the same compound, the solubility in water entry in data set [2] (at 1 bar and 20° C.) was “about 735 ppm”.

The record behind these values is patent US20150329878A1, “FERMENTATIVE PRODUCTION OF A HYDROCARBON” (GLOBAL BIOENERGIES, priority 2012, published 2015).
